pIC50: −log10 of the molar value.
Experiment: Evaluation of GLUT9 Inhibitory Activity: Uricase/Hyper transiently-transfected human GLUT9 stably expressing cells or mock cells (blank) were seeded in a 96 well plate (Corning) at 1.6×10^5 cells/well, and cultured overnight at 37° C., 5% CO2. D-MEM/high glucose (Wako Pure Chemical Industries, Ltd.) containing 10% Fetal Bovine Serum (Lifetechnology) and 100 units/ml penicillin/100 μg/ml streptomycin (GIBCO) was used as a medium. High K− buffer (129.8 mM KCl, 1.2 mM KH2PO4, 1.2 mM MgSO4.7H2O, 1.3 mM CaCl2. 2H2O, 25 mM HEPES, pH 7.4 with 1 M Tris) and the medium were mixed in equal amount to prepare Assay Buffer. The medium in each well was removed, and the test compound solution (final 1% DMSO) diluted with Assay Buffer was added thereto at 50 μl/well, and the mixture was left stand at room temperature for 30 to 60 min. For the solvent control and blank, Assay Buffer containing DMSO alone was added at 50 μl/well, and the mixture was left stand at room temperature for 30 to 60 min. In addition, uric acid solution (containing [14C]uric acid as a tracer) diluted with Assay Buffer was added to each well at 15 μl/well (final 300 μM uric acid), and the uptake reaction was performed at room temperature for 6 min. After the completion of the reaction, the cells were washed three times with ice-cooled Wash Buffer (Hank's Balanced Salt Solution containing 0.01% Bovine Serum Albumin) at 150 μl/well, and 0.1N aqueous NaOH solution was added thereto at 25 μl/well to dissolve the cell. MicroScint-20 (Perkin-Elmer) was added thereto at 150 μl/well, the plate was shaked, and CPM of [14C] was measured by TopCount NXT (Perkin-Elmer).Data was obtained by deducting average of CPM in blank well from average of CPM in each treated well. The inhibitory rate of the test compound in each concentration was calculated from the following formula: [(A−B)/A]×100, A is data of solvent control, B is data of test compound treatment.

Structure (SMILES) | pIC50
COc1ccc(-c2ncc(CC3CCC3)cc2-c2ccc(C(=O)O)cc2)cc1 | 6.72
CCCCc1cnc(-c2cc(F)c(OC)c(F)c2)c(-c2ccc(C(=O)O)cc2)c1 | 7.24
CCCCCc1cnc(-c2ccc(OC)cc2)c(-c2ccc(C(=O)O)cc2)c1 | 7.30
CCCc1cnc(-c2cc(F)c(OC)c(F)c2)c(-c2ccc(C(=O)O)cc2)c1 | 7.14
COc1ccc(-c2ncc(CC3CCCC3)cc2-c2ccc(C(=O)O)cc2)cc1 | 6.07
CCCCc1cnc(-c2ccc(OC)cc2)c(-c2ccc(C(=O)O)cc2)n1 | 6.85
CCCCc1cnc(-c2ccc(OC)c(F)c2)c(-c2ccc(C(=O)O)cc2)c1 | 7.05
COCCCCc1cnc(-c2ccc(C(F)(F)F)cc2)c(-c2ccc(C(=O)O)cc2)n1 | 6.80
CCCCc1cnc(-c2ccc(OC)cc2)c(-c2ccc(C(=O)O)cc2)c1F | 7.08
COCCCc1cnc(-c2ccc(OC)cc2)c(-c2ccc(CCC(=O)O)cc2)n1 | 7.04
CCCCc1cnc(-c2ccc(CC)c(C)c2)c(-c2ccc(C(=O)O)cc2)n1 | 6.82
CCCCc1cnc(-c2ccc(C)cc2)c(-c2ccc(C(=O)O)cc2)c1 | 6.47
CCCc1cnc(-c2ccc(OC)cc2)c(-c2ccc(C(=O)O)cc2)c1 | 7.05

— ChEMBL document CHEMBL5727895, “Nitrogen-containing heteroaryl compound and pharmaceutical use thereof” (2020)
